In the kinase profiling compilation of Christmann-Franck et al. (2016):

Tests used:
Assay in all cases: KINOMEscan competition binding
Conditions in all cases: compound 10.0 µM
MYO3B (human) = MYO3B (human) (UniProt Q8WXR4)
STK17A (human) = STK17A (human) (UniProt Q9UEE5)
CAMK2B (human) = CAMK2B (human) (UniProt Q13554)
RPS6KB1 (human) = RPS6KB1 (human) (UniProt P23443)
BTK (human) = BTK (human) (UniProt Q06187)
CDK15 (human) = CDK15 (human) (UniProt Q96Q40)
MARK1 (human) = MARK1 (human) (UniProt Q9P0L2)
AURKA (human) = AURKA (human) (UniProt O14965)
STK38L (human) = STK38L (human) (UniProt Q9Y2H1)
PRKAA2 (human) = PRKAA2 (human) (UniProt P54646)
PHKG1 (human) = PHKG1 (human) (UniProt Q16816)
MAP2K3 (human) = MAP2K3 (human) (UniProt P46734)
PRKX (human) = PRKX (human) (UniProt P51817)
MST4 (human) = MST4 (human) (UniProt Q9P289)
ACVR2A (human) = ACVR2A (human) (UniProt P27037)
CDK4 CCND3 (human) = CDK4 CCND3 (human) (UniProt P11802+P30281)
GSK3A (human) = GSK3A (human) (UniProt P49840)
KIT (human) = KIT (human) (UniProt P10721)
MAST1 (human) = MAST1 (human) (UniProt Q9Y2H9)
DAPK3 (human) = DAPK3 (human) (UniProt O43293)
FGFR2 (human) = FGFR2 (human) (UniProt P21802)
RIPK1 (human) = RIPK1 (human) (UniProt Q13546)
GAK (human) = GAK (human) (UniProt O14976)
GRK7 (human) = GRK7 (human) (UniProt Q8WTQ7)
FES (human) = FES (human) (UniProt P07332)
MAP3K3 (human) = MAP3K3 (human) (UniProt Q99759)
MINK1 (human) = MINK1 (human) (UniProt Q8N4C8)
MAPK1 (human) = MAPK1 (human) (UniProt P28482)
CDKL3 (human) = CDKL3 (human) (UniProt Q8IVW4)
EIF2AK2 (human) = EIF2AK2 (human) (UniProt P19525)
LCK (human) = LCK (human) (UniProt P06239)
DCLK1 (human) = DCLK1 (human) (UniProt O15075)
PIK3CD (human) = PIK3CD (human) (UniProt O00329)
EPHA1 (human) = EPHA1 (human) (UniProt P21709)
[1] = target: JAK2 JH1 catalytic (human) (UniProt O60674)
ADCK4 (human) = ADCK4 (human) (UniProt Q96D53)
MAP2K4 (human) = MAP2K4 (human) (UniProt P45985)
CAMK2G (human) = CAMK2G (human) (UniProt Q13555)
RIOK3 (human) = RIOK3 (human) (UniProt O14730)
CAMK4 (human) = CAMK4 (human) (UniProt Q16566)

Sequence of MARK1 (human) (Q9P0L2 whole entry, looked up): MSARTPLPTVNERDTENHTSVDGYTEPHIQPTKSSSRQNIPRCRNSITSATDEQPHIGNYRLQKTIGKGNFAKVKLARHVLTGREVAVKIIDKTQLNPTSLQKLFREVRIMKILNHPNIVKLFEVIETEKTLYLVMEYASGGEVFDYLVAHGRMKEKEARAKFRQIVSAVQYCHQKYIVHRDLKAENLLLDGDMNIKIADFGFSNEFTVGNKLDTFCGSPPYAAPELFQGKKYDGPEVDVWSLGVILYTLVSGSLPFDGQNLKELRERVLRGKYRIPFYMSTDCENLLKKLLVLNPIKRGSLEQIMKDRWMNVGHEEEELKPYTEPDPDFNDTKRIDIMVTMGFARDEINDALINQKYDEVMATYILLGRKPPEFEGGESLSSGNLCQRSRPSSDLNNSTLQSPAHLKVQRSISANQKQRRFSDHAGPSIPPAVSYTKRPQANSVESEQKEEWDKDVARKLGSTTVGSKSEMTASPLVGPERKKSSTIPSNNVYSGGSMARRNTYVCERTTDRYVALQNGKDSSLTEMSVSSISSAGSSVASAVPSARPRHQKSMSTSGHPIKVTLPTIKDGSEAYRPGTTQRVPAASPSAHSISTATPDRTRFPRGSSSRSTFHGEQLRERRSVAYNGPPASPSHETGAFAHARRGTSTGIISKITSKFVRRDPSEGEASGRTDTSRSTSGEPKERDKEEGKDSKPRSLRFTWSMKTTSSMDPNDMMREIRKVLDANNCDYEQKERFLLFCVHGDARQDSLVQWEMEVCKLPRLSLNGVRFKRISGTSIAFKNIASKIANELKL
Sequence of GSK3A (human) (P49840 whole entry, looked up): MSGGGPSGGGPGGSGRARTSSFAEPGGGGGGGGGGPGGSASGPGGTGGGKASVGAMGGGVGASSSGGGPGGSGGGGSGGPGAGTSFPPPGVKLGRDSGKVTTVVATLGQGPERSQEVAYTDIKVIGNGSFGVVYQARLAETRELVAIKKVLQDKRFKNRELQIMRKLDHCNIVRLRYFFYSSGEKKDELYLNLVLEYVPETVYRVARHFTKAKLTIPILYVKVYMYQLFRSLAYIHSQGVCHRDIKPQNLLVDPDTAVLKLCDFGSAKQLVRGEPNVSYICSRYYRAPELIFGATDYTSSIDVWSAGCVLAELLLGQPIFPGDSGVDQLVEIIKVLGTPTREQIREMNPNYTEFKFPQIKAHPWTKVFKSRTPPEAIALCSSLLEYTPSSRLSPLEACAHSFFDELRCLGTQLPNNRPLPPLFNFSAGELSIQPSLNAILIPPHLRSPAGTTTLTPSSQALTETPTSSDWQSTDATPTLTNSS
Sequence of MAP3K3 (human) (Q99759 whole entry, looked up): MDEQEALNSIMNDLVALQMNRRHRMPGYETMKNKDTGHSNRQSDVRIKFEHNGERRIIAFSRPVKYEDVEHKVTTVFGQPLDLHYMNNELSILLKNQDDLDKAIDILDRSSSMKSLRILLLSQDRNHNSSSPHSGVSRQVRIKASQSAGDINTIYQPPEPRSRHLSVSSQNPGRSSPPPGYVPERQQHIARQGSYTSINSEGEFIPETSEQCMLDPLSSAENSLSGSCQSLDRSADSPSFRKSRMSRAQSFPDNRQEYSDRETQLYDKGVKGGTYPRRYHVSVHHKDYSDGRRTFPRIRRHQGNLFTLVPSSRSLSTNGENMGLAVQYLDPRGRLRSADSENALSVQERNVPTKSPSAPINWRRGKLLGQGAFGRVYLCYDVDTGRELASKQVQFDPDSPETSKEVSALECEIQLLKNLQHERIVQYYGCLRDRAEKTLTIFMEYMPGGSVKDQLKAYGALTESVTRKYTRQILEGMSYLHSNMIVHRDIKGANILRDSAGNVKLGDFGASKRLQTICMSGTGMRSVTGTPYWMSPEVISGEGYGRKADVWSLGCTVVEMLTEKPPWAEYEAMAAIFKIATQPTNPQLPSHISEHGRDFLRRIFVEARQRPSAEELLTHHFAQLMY
Sequence of RIOK3 (human) (O14730 whole entry, looked up): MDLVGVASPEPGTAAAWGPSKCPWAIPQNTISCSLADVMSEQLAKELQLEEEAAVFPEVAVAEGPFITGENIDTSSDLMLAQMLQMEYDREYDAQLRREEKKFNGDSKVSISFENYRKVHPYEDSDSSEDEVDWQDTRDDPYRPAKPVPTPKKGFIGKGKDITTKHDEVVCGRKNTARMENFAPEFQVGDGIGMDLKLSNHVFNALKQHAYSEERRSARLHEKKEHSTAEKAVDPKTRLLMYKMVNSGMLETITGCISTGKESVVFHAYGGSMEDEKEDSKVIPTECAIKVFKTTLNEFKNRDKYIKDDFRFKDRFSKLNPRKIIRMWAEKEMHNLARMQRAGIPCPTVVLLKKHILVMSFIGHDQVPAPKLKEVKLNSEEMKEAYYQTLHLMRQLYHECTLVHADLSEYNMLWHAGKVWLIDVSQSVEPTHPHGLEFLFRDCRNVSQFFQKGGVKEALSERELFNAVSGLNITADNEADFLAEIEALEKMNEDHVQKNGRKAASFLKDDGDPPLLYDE
Sequence of MAP2K3 (human) (P46734 whole entry, looked up): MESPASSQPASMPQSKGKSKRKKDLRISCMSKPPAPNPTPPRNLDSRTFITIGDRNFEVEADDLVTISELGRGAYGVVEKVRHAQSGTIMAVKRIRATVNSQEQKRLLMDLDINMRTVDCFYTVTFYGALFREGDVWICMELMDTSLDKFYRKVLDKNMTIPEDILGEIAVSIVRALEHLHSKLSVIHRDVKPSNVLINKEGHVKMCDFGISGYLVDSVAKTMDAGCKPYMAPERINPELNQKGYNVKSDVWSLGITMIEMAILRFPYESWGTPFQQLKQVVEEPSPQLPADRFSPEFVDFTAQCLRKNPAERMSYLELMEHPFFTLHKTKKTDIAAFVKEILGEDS
Sequence of AURKA (human) (O14965 whole entry, looked up): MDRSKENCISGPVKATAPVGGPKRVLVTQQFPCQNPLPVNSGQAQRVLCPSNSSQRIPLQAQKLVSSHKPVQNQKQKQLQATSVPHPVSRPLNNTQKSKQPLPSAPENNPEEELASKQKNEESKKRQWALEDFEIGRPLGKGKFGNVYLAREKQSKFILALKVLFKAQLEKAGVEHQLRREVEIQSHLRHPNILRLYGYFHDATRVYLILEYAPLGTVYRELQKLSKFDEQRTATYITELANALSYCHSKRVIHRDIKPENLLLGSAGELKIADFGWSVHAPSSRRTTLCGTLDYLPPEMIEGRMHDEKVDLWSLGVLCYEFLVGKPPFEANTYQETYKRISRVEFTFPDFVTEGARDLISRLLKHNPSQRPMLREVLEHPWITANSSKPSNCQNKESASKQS
Sequence of DCLK1 (human) (O15075 whole entry, looked up): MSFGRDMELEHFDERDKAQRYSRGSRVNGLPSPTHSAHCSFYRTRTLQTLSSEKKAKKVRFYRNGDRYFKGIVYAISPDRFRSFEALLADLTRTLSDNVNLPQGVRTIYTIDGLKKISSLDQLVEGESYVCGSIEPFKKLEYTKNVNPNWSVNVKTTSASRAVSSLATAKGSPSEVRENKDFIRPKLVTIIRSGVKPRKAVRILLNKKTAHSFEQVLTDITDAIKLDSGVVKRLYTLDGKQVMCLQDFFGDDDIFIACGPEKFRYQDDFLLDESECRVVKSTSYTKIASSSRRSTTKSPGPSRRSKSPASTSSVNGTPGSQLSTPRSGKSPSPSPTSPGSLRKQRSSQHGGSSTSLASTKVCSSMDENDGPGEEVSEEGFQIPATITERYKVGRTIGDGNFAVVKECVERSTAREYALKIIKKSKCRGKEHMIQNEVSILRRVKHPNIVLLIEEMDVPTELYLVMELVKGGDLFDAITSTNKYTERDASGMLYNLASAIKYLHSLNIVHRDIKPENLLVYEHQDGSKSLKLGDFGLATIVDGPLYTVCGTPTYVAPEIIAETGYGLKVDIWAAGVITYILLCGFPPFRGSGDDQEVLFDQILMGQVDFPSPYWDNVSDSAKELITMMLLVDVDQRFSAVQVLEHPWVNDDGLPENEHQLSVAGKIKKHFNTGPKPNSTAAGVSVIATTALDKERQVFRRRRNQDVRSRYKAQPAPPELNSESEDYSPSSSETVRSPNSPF
Sequence of CDK15 (human) (Q96Q40 whole entry, looked up): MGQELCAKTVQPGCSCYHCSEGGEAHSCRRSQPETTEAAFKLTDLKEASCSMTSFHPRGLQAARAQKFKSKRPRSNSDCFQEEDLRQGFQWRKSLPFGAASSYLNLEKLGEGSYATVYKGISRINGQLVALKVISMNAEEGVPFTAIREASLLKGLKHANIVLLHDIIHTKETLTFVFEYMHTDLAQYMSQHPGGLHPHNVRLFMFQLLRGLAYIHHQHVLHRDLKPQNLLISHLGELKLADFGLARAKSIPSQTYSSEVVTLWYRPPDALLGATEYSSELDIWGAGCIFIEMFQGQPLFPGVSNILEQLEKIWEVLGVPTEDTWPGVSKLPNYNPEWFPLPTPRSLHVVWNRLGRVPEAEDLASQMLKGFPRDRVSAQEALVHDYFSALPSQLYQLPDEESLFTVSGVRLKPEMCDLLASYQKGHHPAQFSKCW
Sequence of RIPK1 (human) (Q13546 whole entry, looked up): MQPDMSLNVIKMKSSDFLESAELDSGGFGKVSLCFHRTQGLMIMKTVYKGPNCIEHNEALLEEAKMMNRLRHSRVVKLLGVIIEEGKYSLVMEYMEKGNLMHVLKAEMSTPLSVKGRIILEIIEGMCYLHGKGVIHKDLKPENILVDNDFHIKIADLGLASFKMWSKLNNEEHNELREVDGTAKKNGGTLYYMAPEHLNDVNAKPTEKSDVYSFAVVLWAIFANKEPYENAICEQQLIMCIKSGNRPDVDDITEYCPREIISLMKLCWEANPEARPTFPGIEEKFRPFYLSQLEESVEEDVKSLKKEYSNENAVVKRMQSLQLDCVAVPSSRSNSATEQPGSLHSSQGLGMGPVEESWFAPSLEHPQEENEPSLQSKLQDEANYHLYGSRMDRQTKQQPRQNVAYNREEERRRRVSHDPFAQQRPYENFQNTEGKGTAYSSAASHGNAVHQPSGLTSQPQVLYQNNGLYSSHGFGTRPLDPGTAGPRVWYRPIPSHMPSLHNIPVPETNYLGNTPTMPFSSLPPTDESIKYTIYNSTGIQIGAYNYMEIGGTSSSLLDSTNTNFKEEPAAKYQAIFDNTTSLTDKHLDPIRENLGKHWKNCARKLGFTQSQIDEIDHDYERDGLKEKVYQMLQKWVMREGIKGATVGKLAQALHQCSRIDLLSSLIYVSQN

Compound | kinase still bound, per cent of control (MYO3B (human)) | kinase still bound, per cent of control (STK17A (human)) | kinase still bound, per cent of control (CAMK2B (human)) | kinase still bound, per cent of control (RPS6KB1 (human)) | kinase still bound, per cent of control (BTK (human)) | kinase still bound, per cent of control (CDK15 (human)) | kinase still bound, per cent of control (MARK1 (human)) | kinase still bound, per cent of control (AURKA (human)) | kinase still bound, per cent of control (STK38L (human)) | kinase still bound, per cent of control (PRKAA2 (human)) | kinase still bound, per cent of control (PHKG1 (human)) | kinase still bound, per cent of control (MAP2K3 (human)) | kinase still bound, per cent of control (PRKX (human)) | kinase still bound, per cent of control (MST4 (human)) | kinase still bound, per cent of control (ACVR2A (human)) | kinase still bound, per cent of control (CDK4 CCND3 (human)) | kinase still bound, per cent of control (GSK3A (human)) | kinase still bound, per cent of control (KIT (human)) | kinase still bound, per cent of control (MAST1 (human)) | kinase still bound, per cent of control (DAPK3 (human)) | also measured
CCN1CCN(C(=O)Cc2ccc(Nc3ncc(F)c(Nc4ccc(C(=O)Nc5ccccc5Cl)cc4)n3)cc2)CC1 | 100% | 2.6% | 72% | 39% | 27% | 64% | 51% | 0.5% | 60% | 39% | 82% | 57% | 76% | 43% | 2.2% | 21% | 88% | 1% | 100% | 5.2% | kinase still bound, per cent of control (FGFR2 (human)): 25%; kinase still bound, per cent of control (RIPK1 (human)): 96%; kinase still bound, per cent of control (GAK (human)): 5.7%; kinase still bound, per cent of control (GRK7 (human)): 71%; kinase still bound, per cent of control (FES (human)): 48%; kinase still bound, per cent of control (MAP3K3 (human)): 49%; kinase still bound, per cent of control (MINK1 (human)): 57%; kinase still bound, per cent of control (MAPK1 (human)): 100%; kinase still bound, per cent of control (CDKL3 (human)): 89%; kinase still bound, per cent of control (EIF2AK2 (human)): 15%; kinase still bound, per cent of control (LCK (human)): 6.6%; kinase still bound, per cent of control (DCLK1 (human)): 74%; kinase still bound, per cent of control (PIK3CD (human)): 41%; kinase still bound, per cent of control (EPHA1 (human)): 27%; kinase still bound, per cent of control [1]: 76%; kinase still bound, per cent of control (ADCK4 (human)): 0.45%; kinase still bound, per cent of control (MAP2K4 (human)): 49%; kinase still bound, per cent of control (CAMK2G (human)): 55%; kinase still bound, per cent of control (RIOK3 (human)): 0.2%; kinase still bound, per cent of control (CAMK4 (human)): 100%
N#CCNC(=O)c1ccc(-c2ccnc(Nc3ccc(N4CCOCC4)cc3)n2)cc1 | 100% | 0.2% | 14% | 100% | 75% | 58% | 66% | 12% | 71% | 74% | 78% | 53% | 74% | 83% | 75% | 13% | 100% | 100% | 42% | 11% | kinase still bound, per cent of control (FGFR2 (human)): 58%; kinase still bound, per cent of control (RIPK1 (human)): 63%; kinase still bound, per cent of control (GAK (human)): 3.4%; kinase still bound, per cent of control (GRK7 (human)): 100%; kinase still bound, per cent of control (FES (human)): 100%; kinase still bound, per cent of control (MAP3K3 (human)): 51%; kinase still bound, per cent of control (MINK1 (human)): 82%; kinase still bound, per cent of control (MAPK1 (human)): 93%; kinase still bound, per cent of control (CDKL3 (human)): 60%; kinase still bound, per cent of control (EIF2AK2 (human)): 47%; kinase still bound, per cent of control (LCK (human)): 90%; kinase still bound, per cent of control (DCLK1 (human)): 52%; kinase still bound, per cent of control (PIK3CD (human)): 45%; kinase still bound, per cent of control (EPHA1 (human)): 100%; kinase still bound, per cent of control [1]: 0.1%; kinase still bound, per cent of control (ADCK4 (human)): 33%; kinase still bound, per cent of control (MAP2K4 (human)): 32%; kinase still bound, per cent of control (CAMK2G (human)): 36%; kinase still bound, per cent of control (RIOK3 (human)): 0%; kinase still bound, per cent of control (CAMK4 (human)): 100%
O=C(Nc1cccc(Nc2ncc(Br)c(NCCc3cnc[nH]3)n2)c1)N1CCCC1 | 93% | 0.2% | 35% | 3.2% | 5.2% | 25% | 0.45% | 1.6% | 69% | 0.5% | 2.3% | 23% | 0.2% | 0.4% | 6.4% | 0.35% | 60% | 0.15% | 58% | 4% | kinase still bound, per cent of control (FGFR2 (human)): 4.6%; kinase still bound, per cent of control (RIPK1 (human)): 18%; kinase still bound, per cent of control (GAK (human)): 1.4%; kinase still bound, per cent of control (GRK7 (human)): 34%; kinase still bound, per cent of control (FES (human)): 33%; kinase still bound, per cent of control (MAP3K3 (human)): 0.3%; kinase still bound, per cent of control (MINK1 (human)): 4.2%; kinase still bound, per cent of control (MAPK1 (human)): 77%; kinase still bound, per cent of control (CDKL3 (human)): 75%; kinase still bound, per cent of control (EIF2AK2 (human)): 31%; kinase still bound, per cent of control (LCK (human)): 3.4%; kinase still bound, per cent of control (DCLK1 (human)): 35%; kinase still bound, per cent of control (PIK3CD (human)): 84%; kinase still bound, per cent of control (EPHA1 (human)): 35%; kinase still bound, per cent of control [1]: 0%; kinase still bound, per cent of control (ADCK4 (human)): 33%; kinase still bound, per cent of control (MAP2K4 (human)): 0.3%; kinase still bound, per cent of control (CAMK2G (human)): 52%; kinase still bound, per cent of control (RIOK3 (human)): 0.5%; kinase still bound, per cent of control (CAMK4 (human)): 100%
